Laboratory results taken from US10499642B2, “Isoxazoline-substituted benzamides and analogues as insecticides” (SYNGENTA PARTICIPATIONS AG, priority 2015, dated 2019).
Read-outs that look alike come from different tables or passages of the source.

How the values were obtained:
Assay type in all cases: in vivo
Myzus persicae = Myzus persicae (green peach aphid) sunflower leaf disc test; conditions: foliar, 144 h
Procedure: Myzus persicae (Green Peach Aphid):
Sunflower leaf discs were placed on agar in a 24-well microtiter plate and sprayed with test solutions at an application rate of 200 ppm. After drying, the leaf discs were infested with an aphid population of mixed ages. After an incubation period of 6 days after treatment, samples were checked for mortality. The following compounds gave at least 80% mortality of Myzus persicae: […]

Thrips tabaci = Thrips tabaci (onion thrips) sunflower leaf disc test; conditions: foliar, 144 h
Procedure: Thrips tabaci (Onion Thrips):
(§1) Sunflower leaf discs were placed on agar in 24-well microtiter plates and sprayed with aqueous test solutions prepared from 10′000 ppm DMSO stock solutions. After drying the leaf discs were infested with a thrips population of mixed ages. The samples were assessed for mortality 6 days after infestation.

Plutella xylostella = Plutella xylostella (diamond back moth) artificial diet test; conditions: 120 h, read-out: effect in at least one of the two categories (mortality or growth inhibition)
Procedure: Plutella xylostella (Diamond Back Moth):
(§2) 24-well microtiter plates with artificial diet were treated with aqueous test solutions prepared from 10′000 ppm DMSO stock solutions by pipetting. After drying, the plates were infested with L2 larvae (10 to 15 per well). The samples were assessed for mortality and growth inhibition in comparison to untreated samples 5 days after infestation. The following compounds gave an effect of at least 80% in at least one of the two categories (mortality or growth inhibition) at an application rate of 200 ppm: […]

Tetranychus urticae = Tetranychus urticae (two-spotted spider mite) bean leaf disc test; conditions: foliar, 192 h
Procedure: Tetranychus urticae (Two-Spotted Spider Mite):
as §1, with “Bean” for “Sunflower”, “discs” for “discs were placed”, “were” for “and”, “mite” for “thrips”, “on mixed population (mobile stages) 8” for “6”

Diabrotica Balteata = experiment: Diabrotica balteata (corn root worm) maize sprout test; conditions: 96 h, read-out: effect in at least one of the two categories (mortality or growth inhibition)
Procedure: Diabrotica Balteata, (Corn Root Worm)
as §2, with “Maize sprouts, placed on an agar layer in 24-well” for “24-well”, “plates” for “plates with artificial diet”, “spraying.” for “pipetting.”, “(6” for “(10”, “10” for “15”, “4” for “5”

Spodoptera littoralis = Spodoptera littoralis (Egyptian cotton leaf worm) cotton leaf disc test; conditions: foliar, 72 h, read-out: control (at least one of mortality, anti-feedant effect, and growth inhibition)
Procedure: Spodoptera littoralis (Egyptian Cotton Leaf Worm)
Cotton leaf discs were placed on agar in 24-well microtiter plates and sprayed with aqueous test solutions prepared from 10′000 ppm DMSO stock solutions. After drying the leaf discs were infested with five L1 larvae. The samples were assessed for mortality, anti-feedant effect, and growth inhibition in comparison to untreated samples 3 days after infestation. Control of Spodoptera littoralis by a test sample is when at least one of mortality, anti-feedant effect, and growth inhibition is higher than the untreated sample.

CC1=NOC(N(C=O)C(=O)c2ccc(C3=NO[C@@](c4cc(Cl)c(Cl)c(Cl)c4)(C(F)(F)F)C3)cc2Br)C1 (stereo partly drawn) [Compound A035, 2-bromo-N-formyl-N-(3-methyl-4,5-dihydroisoxazol-5-yl)-4-[(5S)-5-(3,4,5-trichlorophenyl)-5-(trifluoromethyl)-4H-isoxazol-3-yl]benzamide]
≥ 80%: mortality at 200 ppm (Myzus persicae) | mortality at 200 ppm (Thrips tabaci) | percent effect (mortality or growth inhibition) at 200 ppm (Plutella xylostella) | mortality at 200 ppm (Tetranychus urticae) | percent effect (mortality or growth inhibition) at 200 ppm (Diabrotica Balteata) | percent control (mortality, anti-feedant effect or growth inhibition) at 200 ppm (Spodoptera littoralis)

CC(=O)COC1=NOC(NC(=O)c2ccc(C3=NO[C@@](c4cc(Cl)c(Cl)c(Cl)c4)(C(F)(F)F)C3)cc2C)C1 (stereo partly drawn) [Compound A121, N-(3-acetonyloxy-4,5-dihydroisoxazol-5-yl)-2-methyl-4-[(5S)-5-(3,4,5-trichlorophenyl)-5-(trifluoromethyl)-4H-isoxazol-3-yl]benzamide]
≥ 80%: mortality at 200 ppm (Myzus persicae) | mortality at 200 ppm (Thrips tabaci) | percent effect (mortality or growth inhibition) at 200 ppm (Plutella xylostella) | mortality at 200 ppm (Tetranychus urticae) | percent effect (mortality or growth inhibition) at 200 ppm (Diabrotica Balteata) | percent control (mortality, anti-feedant effect or growth inhibition) at 200 ppm (Spodoptera littoralis)

CC1=NOC(NC(=O)c2ccc(C3=NO[C@@](c4cc(Br)cc(C(F)(F)F)c4)(C(F)(F)F)C3)cc2C)C1 (stereo partly drawn) [Compound A029, 4-[(5S)-5-[3-bromo-5-(trifluoromethyl)phenyl]-5-(trifluoromethyl)-4H-isoxazol-3-yl]-2-methyl-N-(3-methyl-4,5-dihydroisoxazol-5-yl)benzamide]
≥ 80%: mortality at 200 ppm (Myzus persicae; application rate 200 ppm, sunflower leaf discs, population of mixed ages, 6 days after treatment, read-out: mortality) | mortality at 200 ppm (Thrips tabaci; application rate 200 ppm, sunflower leaf discs, population of mixed ages, 6 days after infestation, read-out: mortality) | percent effect (mortality or growth inhibition) at 200 ppm (Plutella xylostella; application rate 200 ppm, artificial diet, L2 larvae, 5 days after infestation) | mortality at 200 ppm (Tetranychus urticae; application rate 200 ppm, bean leaf discs, mixed population (mobile stages), 8 days after infestation, read-out: mortality) | percent effect (mortality or growth inhibition) at 200 ppm (Diabrotica Balteata; application rate 200 ppm, maize sprouts, L2 larvae, 4 days after infestation) | percent control (mortality, anti-feedant effect or growth inhibition) at 200 ppm (Spodoptera littoralis; application rate 200 ppm, cotton leaf discs, L1 larvae, 3 days after infestation)

COC1=NOC(NC(=O)c2ccc(C3=NO[C@@](c4cc(Cl)c(F)c(Cl)c4)(C(F)(F)F)C3)cc2Cl)C1 (stereo partly shown) [Compound A045]
≥ 80%: mortality at 200 ppm (Myzus persicae) | mortality at 200 ppm (Thrips tabaci) | percent effect (mortality or growth inhibition) at 200 ppm (Plutella xylostella) | mortality at 200 ppm (Tetranychus urticae) | percent effect (mortality or growth inhibition) at 200 ppm (Diabrotica Balteata) | percent control (mortality, anti-feedant effect or growth inhibition) at 200 ppm (Spodoptera littoralis)

CO/N=C/C1=NOC(NC(=O)c2ccc(C3=NO[C@@](c4cc(Cl)c(F)c(Cl)c4)(C(F)(F)F)C3)cc2C)C1 (stereo partly drawn) [Compound A119, 4-[(5S)-5-(3,5-dichloro-4-fluoro-phenyl)-5-(trifluoromethyl)-4H-isoxazol-3-yl]-N-[3-[(E)-methoxyiminomethyl]-4,5-dihydroisoxazol-5-yl]-2-methyl-benzamide]
≥ 80%: mortality at 200 ppm (Myzus persicae) | mortality at 200 ppm (Thrips tabaci) | percent effect (mortality or growth inhibition) at 200 ppm (Plutella xylostella) | mortality at 200 ppm (Tetranychus urticae) | percent effect (mortality or growth inhibition) at 200 ppm (Diabrotica Balteata) | percent control (mortality, anti-feedant effect or growth inhibition) at 200 ppm (Spodoptera littoralis)

C#CCCCOC1=NOC(NC(=O)c2ccc(C3=NO[C@@](c4cc(Cl)c(Cl)c(Cl)c4)(C(F)(F)F)C3)cc2C)C1 (stereo partly drawn) [Compound A113, 2-methyl-N-(3-pent-4-ynoxy-4,5-dihydroisoxazol-5-yl)-4-[(5S)-5-(3,4,5-trichlorophenyl)-5-(trifluoromethyl)-4H-isoxazol-3-yl]benzamide]
≥ 80%: mortality at 200 ppm (Myzus persicae) | mortality at 200 ppm (Thrips tabaci) | percent effect (mortality or growth inhibition) at 200 ppm (Plutella xylostella) | mortality at 200 ppm (Tetranychus urticae) | percent effect (mortality or growth inhibition) at 200 ppm (Diabrotica Balteata) | percent control (mortality, anti-feedant effect or growth inhibition) at 200 ppm (Spodoptera littoralis)

COC1=NOC(N(C=O)C(=O)c2ccc(C3=NO[C@@](c4cc(Cl)cc(Cl)c4)(C(F)(F)F)C3)cc2C)C1 (stereo partly shown) [Compound A134]
≥ 80%: mortality at 200 ppm (Myzus persicae) | mortality at 200 ppm (Thrips tabaci) | percent effect (mortality or growth inhibition) at 200 ppm (Plutella xylostella) | mortality at 200 ppm (Tetranychus urticae) | percent effect (mortality or growth inhibition) at 200 ppm (Diabrotica Balteata) | percent control (mortality, anti-feedant effect or growth inhibition) at 200 ppm (Spodoptera littoralis)

Cc1cc(C2=NO[C@@](c3cc(Cl)cc(Cl)c3)(C(F)(F)F)C2)ccc1C(=O)N(C=O)C1CC(Br)=NO1 (stereo partly drawn) [Compound A056, N-(3-bromo-4,5-dihydroisoxazol-5-yl)-4-[(5S)-5-(3,5-dichlorophenyl)-5-(trifluoromethyl)-4H-isoxazol-3-yl]-N-formyl-2-methyl-benzamide]
≥ 80%: mortality at 200 ppm (Myzus persicae) | mortality at 200 ppm (Thrips tabaci) | percent effect (mortality or growth inhibition) at 200 ppm (Plutella xylostella) | mortality at 200 ppm (Tetranychus urticae) | percent effect (mortality or growth inhibition) at 200 ppm (Diabrotica Balteata) | percent control (mortality, anti-feedant effect or growth inhibition) at 200 ppm (Spodoptera littoralis)

Cc1cc(C2=NO[C@@](c3cc(Cl)c(F)c(Cl)c3)(C(F)(F)F)C2)ccc1C(=O)NC1CC(OCC[Si](C)(C)C)=NO1 (stereo partly shown) [Compound A109]
≥ 80%: mortality at 200 ppm (Myzus persicae) | mortality at 200 ppm (Thrips tabaci) | percent effect (mortality or growth inhibition) at 200 ppm (Plutella xylostella) | mortality at 200 ppm (Tetranychus urticae) | percent effect (mortality or growth inhibition) at 200 ppm (Diabrotica Balteata) | percent control (mortality, anti-feedant effect or growth inhibition) at 200 ppm (Spodoptera littoralis)

Cc1cc(C2=NO[C@@](c3cc(Cl)c(Cl)c(Cl)c3)(C(F)(F)F)C2)ccc1C(=O)NC1CC(OCC(F)F)=NO1 (stereo partly drawn) [Compound A127, N-[3-(2,2-difluoroethoxy)-4,5-dihydroisoxazol-5-yl]-2-methyl-4-[(5S)-5-(3,4,5-trichlorophenyl)-5-(trifluoromethyl)-4H-isoxazol-3-yl]benzamide]
≥ 80%: mortality at 200 ppm (Myzus persicae) | mortality at 200 ppm (Thrips tabaci) | percent effect (mortality or growth inhibition) at 200 ppm (Plutella xylostella) | mortality at 200 ppm (Tetranychus urticae) | percent effect (mortality or growth inhibition) at 200 ppm (Diabrotica Balteata) | percent control (mortality, anti-feedant effect or growth inhibition) at 200 ppm (Spodoptera littoralis)

COC1=NO[C@H](NC(=O)c2ccc(C3=NO[C@@](c4cc(Cl)c(F)c(Cl)c4)(C(F)(F)F)C3)cc2C)C1 (single isomer, unassigned) [Compound A150]
≥ 80%: mortality at 200 ppm (Myzus persicae) | mortality at 200 ppm (Thrips tabaci) | percent effect (mortality or growth inhibition) at 200 ppm (Plutella xylostella) | mortality at 200 ppm (Tetranychus urticae) | percent effect (mortality or growth inhibition) at 200 ppm (Diabrotica Balteata) | percent control (mortality, anti-feedant effect or growth inhibition) at 200 ppm (Spodoptera littoralis)

Cc1cc(C2=NO[C@@](c3cc(Cl)c(F)c(Cl)c3)(C(F)(F)F)C2)ccc1C(=O)NC1CC(OC2COC2)=NO1 (stereo partly shown) [Compound A082]
≥ 80%: mortality at 200 ppm (Myzus persicae) | mortality at 200 ppm (Thrips tabaci) | percent effect (mortality or growth inhibition) at 200 ppm (Plutella xylostella) | mortality at 200 ppm (Tetranychus urticae) | percent effect (mortality or growth inhibition) at 200 ppm (Diabrotica Balteata) | percent control (mortality, anti-feedant effect or growth inhibition) at 200 ppm (Spodoptera littoralis)

COCCOC1=NOC(NC(=O)c2ccc(C3=NO[C@@](c4cc(Cl)c(F)c(Cl)c4)(C(F)(F)F)C3)cc2C)C1 (stereo partly shown) [Compound A076]
≥ 80%: mortality at 200 ppm (Myzus persicae) | mortality at 200 ppm (Thrips tabaci) | percent effect (mortality or growth inhibition) at 200 ppm (Plutella xylostella) | mortality at 200 ppm (Tetranychus urticae) | percent effect (mortality or growth inhibition) at 200 ppm (Diabrotica Balteata) | percent control (mortality, anti-feedant effect or growth inhibition) at 200 ppm (Spodoptera littoralis)

Cc1cc(C2=NO[C@@](c3cc(Cl)c(Cl)c(Cl)c3)(C(F)(F)F)C2)ccc1C(=O)NC1CC(OCC(=O)N(C)C)=NO1 (stereo partly drawn) [Compound A114, N-[3-[2-(dimethylamino)-2-oxo-ethoxy]-4,5-dihydroisoxazol-5-yl]-2-methyl-4-[(5S)-5-(3,4,5-trichlorophenyl)-5-(trifluoromethyl)-4H-isoxazol-3-yl]benzamide]
≥ 80%: mortality at 200 ppm (Myzus persicae) | mortality at 200 ppm (Thrips tabaci) | percent effect (mortality or growth inhibition) at 200 ppm (Plutella xylostella) | mortality at 200 ppm (Tetranychus urticae) | percent control (mortality, anti-feedant effect or growth inhibition) at 200 ppm (Spodoptera littoralis)

C/C(N)=N/OC1=NOC(NC(=O)c2ccc(C3=NO[C@@](c4cc(Cl)c(F)c(Cl)c4)(C(F)(F)F)C3)cc2C)C1 (stereo partly drawn) [Compound A143, N-[3-[(Z)-1-aminoethylideneamino]oxy-4,5-dihydroisoxazol-5-yl]-4-[(5S)-5-(3,5-dichloro-4-fluoro-phenyl)-5-(trifluoromethyl)-4H-isoxazol-3-yl]-2-methyl-benzamide]
≥ 80%: mortality at 200 ppm (Thrips tabaci) | percent effect (mortality or growth inhibition) at 200 ppm (Plutella xylostella) | mortality at 200 ppm (Tetranychus urticae) | percent effect (mortality or growth inhibition) at 200 ppm (Diabrotica Balteata) | percent control (mortality, anti-feedant effect or growth inhibition) at 200 ppm (Spodoptera littoralis)
